Measured values reported in patent US9139615B2, “High-affinity, dimeric inhibitors of PSD-95 as efficient neuroprotectants against ischemic brain damage and for treatment of pain” (University of Copenhagen, priority 2011, dated 2015).
Values joined by “and” are separate entries in the source; they are usually repeats but may differ in a detail not shown here. Identical values can stand only once. “Also recorded” adds a separate entry of the source. Where a SMILES comes first, the peptide text is derived from it. The star is where a group is joined. 5FAM = O=C1OC2(c3ccc(O)cc3Oc3cc(O)ccc32)c2ccc(C(=O)*)cc21

Columns and labels:
[1] = Human blood plasma stability assay; format: in vitro ADME
Protocol: Ligands (dimeric PSD-95 inhibitors) for the PDZ domain of PSD-95 were dissolved in human blood plasma (270 μL; 3H Biomedical, Sweden, cat no 1300-1-P50) to a concentration of 0.25 mM (30 μL, of 2.5 mM) and incubated at 37° C. Aliquots (30 μL) were removed at various time intervals (e.g. 0, 5, 10, 20, 40, 80, 160, 320, 960, 1280, 2550, 4560 and 7240 min) and quenched with 60 μL, trichloroacetic acid (aq., 5%). The aliquots were vortexed, and incubated 15 min, at 4° C. prior to centrifugation at 18,000 g for 2 min. The supernatants were analyzed by analytical RP-HPLC (UV218) to quantify compound relative to time zero, and also evaluated qualitatively by ESI-LC/MS in order to identify the compound (m/z) in the sample. Procaine (positive control) and procainamide (negative control) were investigated at 50 μM to validate the procedure. Ligand recoveries following the precipitation procedure were between 85-95%.

[2] = system: pMCAO model of ischemic stroke; assay: Rotarod performance test after pMCAO; format: in vivo, mice; details: 48 hours after pMCAO
Protocol: The rotarod (LE 8200, Panlab) is well suited to evaluate motor activity in rodents, experimental compound effects on central nervous system damage, or disease effects on motor coordination, assessed by the time during which the animal remains walking in a rotating drum. The rotation of the rotarod is motor drived and accelerates from 0 to 40 rounds per min (rpm) over a time period of 5 min, at which time all mice have fallen off the rod. All mice were tested in 4 repeating trials with a 20 min interval (resting time). Prior to surgery mice were pre-trained to stay on the rod for 30 seconds, at 4 rpm.

[3] = Physiological status of pMCAO mice (blood values, body weight, temperature, survival); format: in vivo; details: mouse, in vivo
Protocol: The physiological status of the mice was carefully monitored prior to and during pMCAO surgery in order to exclude the observed effects of treatment with dimeric PSD-95 inhibitors being due to secondary conditions (e.g. disease-related) resulting from the experimental procedure.
9.10 Body weight monitoring: The body weight of each mouse was registered during pre-training, before surgery, and at 24 and 48 hours after surgery and no differences were seen between the treatment groups (FIG. 13).
9.11 Temperature monitoring: The rectal temperature of the mouse was continuously measured using a thermocoupled probe connected to a Model Bat 12 unit (Physitemp). The temperature was measured prior to and 30 min after pMCAO in addition to 30 min and 2.5 hours after i.v. injection, i.e. 1 and 3 hours after pMCAO.
9.12 Blood gas analysis: One samples of venous blood was taken for blood gas analysis of PO2/PCO2 electrolytes, glucose, lactate, and hematocrit, 30 min after compound administration (1 hour after pMCAO). A capillary heparin coated tube was inserted along the inner corner of eye and turned until it penetrated the conjunctiva. A sample of blood (150 μl) was collected and stored on ice until gas analysis using the GEM Premier 300 blood gas instrument (Instrumentation Laboratory) Quality controls (QC ContrlIL9) were purchased from IL Sensor Systems. Also, no differences were detected in blood gas parameters (PO2/PCO2, pH, electrolytes, glu/lac), which were similar between the groups and within normal range, when compared to unmanipulated control mice (Table 4).

[4] = system: pMCAO model of ischemic stroke; assay: Grip strength after pMCAO; format: in vivo, mice; details: 48 hours after pMCAO, 3 nmol/g i.v.
Protocol: The grip strength meter (BIO-GT-3, BIOSEB) allows the study of neuromuscular functions in mice by determining the maximum force that is required to make the mouse release its grip. The grip strength in individual paws was used to measure the severity of the pMCAO-induced asymmetry. The mouse is allowed to grasp a metal grid and then pulled backwards in the horizontal plane. The force applied to the grid is recorded as the peak tension. The strength of individual front paws and the total grip strength (both paws simultaneously) were measured before (baseline) and after pMCAO. Each mouse is tested in 5 sequential trials and the highest grip strength is recorded as the best score.

[5] = Blood-brain barrier permeability of fluorescent analogues; format: in vivo, mice; details: 5-FAM-labeled, 3 nmol/g i.v., 2 hours after injection, unmanipulated mice
Protocol: VI.ii. Blood-brain Barrier Permeability. […] After injection of the compounds, the mice are perfused with paraformaldehyde and the brains are carefully removed, post-fixed in paraformaldehyde, processed into coronal sections, and quantified for fluorescence (Example 8).
The fluorescent ligands were injected intravenously (3 nmol/g) and the location of the ligands was detected by fluorescence microscopy of coronal brain slices (n=8) mice, was evaluated 2 hours after injection. Two sections of the brain, prior to and two after the anterior commissure (n=5), were selected for BBB permeability analysis. The anterior commissure (Bregma: −0.3) was used as a fix point in the brain in order to analyse anatomically identical brain sections. The intensity of the 5-FAM fluorophore was measured semi-quantitatively using a fluorescence microscopy system (Olympus System Microscope model BX-51, Denmark) with a 10× objective (Olympus 10×/0.15 UPlanApo) connected to a high-resolution microscope digital camera (Olympus model DP70), which transferred images to an image-capturing software (Image Pro Plus software). All images were taken using the same microscope settings and with constant camera exposure time. Intensities were quantified using the ImageJ software.
5-FAM-labeled derivative of Tat-NR2B9c is designated MS23. After injection of the compounds, the mice are perfused with paraformaldehyde and the brains are carefully removed, post-fixed in paraformaldehyde, processed into coronal sections, and quantified for fluorescence.
C57BL/6 mice with 6 hour post-surgical survival time were euthanized by cervical dislocation. C57BL/6 mice with 48 hour post-surgical survival were anesthetized with an overdosed of pentobarbital (the pharmacy of the Faculty of Life Sciences, University of Copenhagen, Denmark) in order to collect blood and tissue samples. All brains were carefully removed, frozen in gaseous CO2 and cut into 6 series of 30 μm coronal cryostat sections and stored at −80° C. until further use. C57BL/6J mice used to investigate the blood-brain barrier (BBB) permeability of AB143, AB145, AB148, and MS23 were deeply anesthetized and perfused through the left ventricle, using 10 ml chilled Soerensens phosphate buffer (SB) ([…], 125 mM Na2HPO4, pH 7.4) followed by 20 mL SB containing 4% paraformaldehyde (PFA). The brains were carefully removed and post-fixed in 4% PFA for 1 hour followed by immersion in SB containing 20% sucrose over night. The brains were frozen on gaseous CO2 and processed into 16 μm coronal cryostat sections.

[6] = Spinal cord detection of fluorescent PSD-95 inhibitors; format: in vivo, mice; details: 30 mg/kg i.p., 30 min after injection
Protocol: To investigate if AB143 and AB145 are able to enter spinal cord tissue, they were administered to the mice by intraperitoneal injection (30 mg/kg). The drug-treated mice were decapitated 30 min after injection, and the spinal cord was carefully dissected out, to which 5% trichloroacetic acid (TCA) (300 μL per 0.1 g tissue) was added and the tissue homogenized with an ultrasonic homogenizer (on ice). The homogenated tissue was vortexed and centrifuged for 10 min (20000 g at 4° C.). The supernatant was transferred to a test tube and evaporated, and the residue was reconstituted in water and its fluoresence intensity was determined by using a fluorescence plate reader (excitation/emission:470/525 nm). For quantification of the compounds, a standard curve was prepared by spiking a known amount of AB143 and AB145 into spinal cord tissue from control mice prior to homogenization, followed by work-up and analysis similar to the drug-treated mice.

Q: For CC[C@H](C)[C@H](N)C(=O)N[C@@H](CCC(=O)O)C(=O)N[C@H](C(=O)N[C@@H](CC(=O)O)C(=O)N[C@H](C(=O)O)C(C)C)[C@@H](C)O [IETDV, reference compound], which half-life at 0.25 mM ([1]; human, human blood plasma, 0.25 mM, 37° C., in vitro, read-out: half-life (T1/2) in human blood plasma) is on record?
A: 37 ± 6 min

Q: With CC[C@H](C)[C@H](NC(=O)CCOCCOCCN(CCOCCOCCC(=O)N[C@H](C(=O)N[C@@H](CCC(=O)O)C(=O)N[C@H](C(=O)N[C@@H](CC(=O)O)C(=O)N[C@H](C(=O)O)C(C)C)[C@@H](C)O)[C@@H](C)CC)C(=O)[C@@H](CCCNC(=N)N)NC(=O)[C@@H](CCCCN)NC(=O)[C@@H](CCCCN)NC(=O)[C@@H](CCCNC(=N)N)NC(=O)[C@@H](CCCNC(=N)N)NC(=O)[C@@H](CCC(N)=O)NC(=O)[C@@H](CCCNC(=N)N)NC(=O)[C@@H](CCCNC(=N)N)NC(=O)[C@H](N)CCCNC(=N)N)C(=O)N[C@@H](CCC(=O)O)C(=O)N[C@H](C(=O)N[C@@H](CC(=O)O)C(=O)N[C@H](C(=O)O)C(C)C)[C@@H](C)O [AB147, Retroinverso-D-Tat-NPEG4(IETDV)2] as the compound, how does the “total time spent on the rod” value ([2]; 3 nmol/g i.v., four trials) read?
A: 92.6 ± 4.5 s

Q: And the “short term learning skill improvement on rotarod compared to saline” value ([2]; trials T1-T4)?
A: more pronounced short term learning skill improvement

Q: What about the “degradation in human blood plasma” value [1] of the same compound?
A: No detectable degradation

Q: What about the Hct [3] of the same compound?
A: 41.3 ± 0.6%

Q: And the “[Ca2+]” value [3]?
A: 1.31 ± 0.01 mmol/L

Q: What about the “[K+]” value [3] of the same compound?
A: 5.1 ± 0.18 mmol/L

Q: What about the “[Lactate]” value [3] of the same compound?
A: 0.90 ± 0.05 mmol/L

Q: What about the “[Na+]” value [3] of the same compound?
A: 147 ± 0.5 mmol/L

Q: What about the pCO2 [3] of the same compound?
A: 104 ± 2.5 mmHg

Q: And the pO2 [3]?
A: 56.4 ± 2.9 mmHg

Q: And the “grip strength asymmetry between right and left front paw” value [4]?
A: no asymmetry and not

Q: What about the “total grip strength (both paws) compared to baseline” value [4] of the same compound?
A: no significant change in total grip strength; also recorded: No difference compared to baseline

Q: With CC[C@H](C)[C@H](NC(=O)[C@H](CO)NC(=O)[C@H](CO)NC(=O)[C@H](CC(C)C)NC(=O)[C@H](CCCCN)NC(=O)[C@H](CCCNC(=N)N)NC(=O)[C@H](CCCNC(=N)N)NC(=O)[C@H](CCCNC(=N)N)NC(=O)[C@H](CCC(N)=O)NC(=O)[C@H](CCCNC(=N)N)NC(=O)[C@H](CCCNC(=N)N)NC(=O)[C@H](CCCCN)NC(=O)[C@H](CCCCN)NC(=O)[C@H](CCCNC(=N)N)NC(=O)CNC(=O)[C@H](Cc1ccc(O)cc1)NC(=O)c1ccc2c(c1)C(=O)OC21c2ccc(O)cc2Oc2cc(O)ccc21)C(=O)N[C@@H](CCC(=O)O)C(=O)N[C@@H](CO)C(=O)N[C@@H](CC(=O)O)C(=O)N[C@H](C(=O)O)C(C)C [MS23, F-Tat-NR2B9c, reference compound] (5FAM-YGRKKRRQRRRKLSSIESDV-OH) as the compound, how does the “entry into brain, fluorescence microscopy of coronal brain slices” value [5] read?
A: Detection

Q: Which “entry into brain, fluorescence microscopy of coronal brain slices” value [5] does the source give for CC[C@H](C)[C@H](NC(=O)CCOCCOCCN(CCOCCOCCC(=O)N[C@H](C(=O)N[C@@H](CCC(=O)O)C(=O)N[C@H](C(=O)N[C@@H](CC(=O)O)C(=O)N[C@H](C(=O)O)C(C)C)[C@@H](C)O)[C@@H](C)CC)C(=O)[C@H](CCCNC(=N)N)NC(=O)[C@H](CCCNC(=N)N)NC(=O)[C@H](CCCNC(=N)N)NC(=O)[C@H](CCC(N)=O)NC(=O)[C@H](CCCNC(=N)N)NC(=O)[C@H](CCCNC(=N)N)NC(=O)[C@H](CCCCN)NC(=O)[C@H](CCCCN)NC(=O)[C@H](CCCNC(=N)N)NC(=O)CNC(=O)[C@H](Cc1ccc(O)cc1)NC(=O)c1ccc2c(c1)C(=O)OC21c2ccc(O)cc2Oc2cc(O)ccc21)C(=O)N[C@@H](CCC(=O)O)C(=O)N[C@H](C(=O)N[C@@H](CC(=O)O)C(=O)N[C@H](C(=O)O)C(C)C)[C@@H](C)O [AB145, F-Tat-NPEG4(IETDV)2] here?
A: enter the brain; also recorded: Detection

Q: And the “fluorescence in spinal cord tissue compared to saline-treated mice” value [6]?
A: clear and distinct fluorescence increase

Q: And the “concentration in spinal cord, Average ± SEM” value ([6]; mice)?
A: 0.074 nmol/g and 0.074 ± 0.022 nmol/g

Q: What about the “concentration in spinal cord, individual samples” value ([6]; mice) of the same compound?
A: 0.035 nmol/g and 0.132 nmol/g and 0.108 nmol/g and 0.084 nmol/g and 0.012 nmol/g
